According to US20070141072A1, “Use of multifunctional transcription factor yin-yang-1 and variants thereof for treating illnesses, especially type 1 diabetes” (ERNST-MORITZ-ARNDT-UNIVERSITAT GREIFSWALD, priority 2002, published 2007):

Test system: calbindin-D28k
Assay: Calbindin-D28k protein expression in isolated islets of Langerhans, Western blot
Type: cell-based, rat
Conditions: increasing calcium concentration in the medium
Source text: There were however significant differences in protein expression using Western blot analysis. The calcium-binding protein, calbindin-D28k, was already twice as high in BB.6S rat islets under basal conditions as that of BB/OK rats. […] Calbindin-D28k is a cytosolic calcium-binding protein, which is primarily expressed in the kidney, but also in the pancreas and brain, and which can prevent apoptotic (gene controlled) cell death (41, 42). In functional terms it is supposed that calbindin-D28k is involved in regulation of calcium reabsorption.
Calbindin-D28k protein expression using Western blot analysis under basal conditions and with increasing calcium concentration in the medium.

[Ca+2] [calcium]
protein expression of calbindin-D28k (BB.6S islets): clearly increased | protein expression of calbindin-D28k (BB/OK islets): almost uninfluenced
